The NIST ThermoML archive (doi:10.1016/j.jct.2015.08.014)
± gives the expanded uncertainty stated by the source.

Assay: xn = mol fraction of the nth substance listed
Conditions: 283.15 K, 100 kPa, Liquid, Alternating current cell with electrodes

CCCC[N+]1(C)CCCC1.N#CN=C=[N-] [1-butyl-1-methylpyrrolidinium dicyanamide] + O=C1CCCO1
electrical conductivity [S/m]
Conditions	Frequency=0.003 MHz	Frequency=0.00347222 MHz	Frequency=0.004 MHz	Frequency=0.00446429 MHz	Frequency=0.005 MHz	Frequency=0.005454 MHz	Frequency=0.006 MHz	Frequency=0.00652174 MHz	Frequency=0.00694444 MHz	Frequency=0.0075 MHz
x1 = 0.0463	–	1.17 ± 0.02	1.17 ± 0.02	1.17 ± 0.02	1.17 ± 0.02	1.17 ± 0.02	1.17 ± 0.02	1.17 ± 0.02	1.17 ± 0.02	1.17 ± 0.02
x1 = 0.0987	–	1.73 ± 0.021	1.73 ± 0.021	1.73 ± 0.021	1.73 ± 0.021	1.73 ± 0.021	1.73 ± 0.021	1.73 ± 0.021	1.73 ± 0.021	1.73 ± 0.021
x1 = 0.1449	–	1.93 ± 0.02	1.93 ± 0.02	1.93 ± 0.02	1.93 ± 0.02	1.93 ± 0.02	1.93 ± 0.02	1.93 ± 0.02	1.93 ± 0.02	1.93 ± 0.02
x1 = 0.1859	2.028 ± 0.02	2.028 ± 0.02	2.028 ± 0.02	2.028 ± 0.02	2.028 ± 0.02	2.028 ± 0.02	2.028 ± 0.02	2.028 ± 0.02	2.028 ± 0.02	2.028 ± 0.02
x1 = 0.2493	1.925 ± 0.019	1.925 ± 0.019	1.926 ± 0.019	1.926 ± 0.019	1.926 ± 0.019	1.926 ± 0.019	1.926 ± 0.019	1.926 ± 0.019	1.926 ± 0.019	1.926 ± 0.019
x1 = 0.3029	1.84 ± 0.019	1.84 ± 0.019	1.84 ± 0.019	1.84 ± 0.019	1.84 ± 0.019	1.84 ± 0.019	1.84 ± 0.019	1.84 ± 0.019	1.84 ± 0.019	1.84 ± 0.019
x1 = 0.3845	1.66 ± 0.017	1.66 ± 0.017	1.66 ± 0.017	1.66 ± 0.017	1.66 ± 0.017	1.66 ± 0.017	1.66 ± 0.017	1.66 ± 0.017	1.66 ± 0.017	1.66 ± 0.017
x1 = 0.4985	1.407 ± 0.014	1.407 ± 0.014	1.407 ± 0.014	1.407 ± 0.014	1.407 ± 0.014	1.407 ± 0.014	1.407 ± 0.014	1.407 ± 0.014	1.407 ± 0.014	1.407 ± 0.014
x1 = 0.6954	1.07 ± 0.01	1.07 ± 0.01	1.07 ± 0.01	1.07 ± 0.01	1.07 ± 0.01	1.07 ± 0.01	1.07 ± 0.01	1.07 ± 0.01	1.07 ± 0.01	1.07 ± 0.01
x1 = 0.9013	0.849 ± 0.009	0.849 ± 0.009	0.849 ± 0.009	0.849 ± 0.009	0.849 ± 0.009	0.849 ± 0.009	0.849 ± 0.009	0.849 ± 0.009	0.849 ± 0.009	0.849 ± 0.009
x1 = 1	0.786 ± 0.008	0.786 ± 0.008	0.786 ± 0.008	0.786 ± 0.008	0.786 ± 0.008	0.786 ± 0.008	0.786 ± 0.008	0.786 ± 0.008	0.786 ± 0.008	0.786 ± 0.008
